# Molecular target: T1, epithelial sodium channel (ENaC) (Mus musculus, UniProt Q61180+Q9WU38+Q9WU39)
# T1 construct: Mouse kidney M-1 cells were cultivated in DMEM containing 5% FCS and 5 μM dexamethasone; endogenous in cells; host or cells: mouse kidney M-1 cells
# T1 sequence (Q61180 1-699): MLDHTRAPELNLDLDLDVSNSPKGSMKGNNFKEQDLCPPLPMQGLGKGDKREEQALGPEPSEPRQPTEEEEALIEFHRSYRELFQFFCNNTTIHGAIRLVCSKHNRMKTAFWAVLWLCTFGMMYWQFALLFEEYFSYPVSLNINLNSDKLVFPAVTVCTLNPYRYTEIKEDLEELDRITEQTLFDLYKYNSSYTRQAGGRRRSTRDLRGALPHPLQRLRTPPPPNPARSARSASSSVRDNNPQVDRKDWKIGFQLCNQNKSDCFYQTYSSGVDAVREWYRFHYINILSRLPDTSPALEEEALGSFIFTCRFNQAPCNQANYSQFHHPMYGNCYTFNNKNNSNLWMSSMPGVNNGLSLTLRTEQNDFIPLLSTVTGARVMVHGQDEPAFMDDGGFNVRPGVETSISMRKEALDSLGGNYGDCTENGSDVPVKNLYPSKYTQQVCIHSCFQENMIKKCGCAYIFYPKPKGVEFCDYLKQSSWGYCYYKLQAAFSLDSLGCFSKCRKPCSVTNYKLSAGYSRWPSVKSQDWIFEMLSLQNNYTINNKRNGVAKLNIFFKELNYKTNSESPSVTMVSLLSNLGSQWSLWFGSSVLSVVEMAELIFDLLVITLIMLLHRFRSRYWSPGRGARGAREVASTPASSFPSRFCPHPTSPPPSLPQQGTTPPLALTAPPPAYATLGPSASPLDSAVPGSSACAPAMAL
# T1 sequence (Q9WU38 1-638): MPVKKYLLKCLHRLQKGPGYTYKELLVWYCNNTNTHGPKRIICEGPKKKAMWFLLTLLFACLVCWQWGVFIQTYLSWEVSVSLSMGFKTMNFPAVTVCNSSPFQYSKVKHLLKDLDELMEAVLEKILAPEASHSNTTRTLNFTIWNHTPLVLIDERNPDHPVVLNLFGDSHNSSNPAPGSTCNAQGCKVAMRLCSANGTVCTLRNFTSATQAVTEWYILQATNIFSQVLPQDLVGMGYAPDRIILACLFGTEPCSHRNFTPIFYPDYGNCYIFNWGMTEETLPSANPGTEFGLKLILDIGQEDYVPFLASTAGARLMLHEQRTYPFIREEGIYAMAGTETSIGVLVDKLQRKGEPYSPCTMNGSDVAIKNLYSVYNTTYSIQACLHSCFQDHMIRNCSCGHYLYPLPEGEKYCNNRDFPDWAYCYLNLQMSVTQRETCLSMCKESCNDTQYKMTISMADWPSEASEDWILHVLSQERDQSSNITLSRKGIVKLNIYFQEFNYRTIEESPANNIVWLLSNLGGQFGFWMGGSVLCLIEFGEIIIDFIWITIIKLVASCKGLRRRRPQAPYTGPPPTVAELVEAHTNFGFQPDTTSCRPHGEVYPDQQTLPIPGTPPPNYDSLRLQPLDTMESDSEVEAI
# T1 sequence (Q9WU39 1-655): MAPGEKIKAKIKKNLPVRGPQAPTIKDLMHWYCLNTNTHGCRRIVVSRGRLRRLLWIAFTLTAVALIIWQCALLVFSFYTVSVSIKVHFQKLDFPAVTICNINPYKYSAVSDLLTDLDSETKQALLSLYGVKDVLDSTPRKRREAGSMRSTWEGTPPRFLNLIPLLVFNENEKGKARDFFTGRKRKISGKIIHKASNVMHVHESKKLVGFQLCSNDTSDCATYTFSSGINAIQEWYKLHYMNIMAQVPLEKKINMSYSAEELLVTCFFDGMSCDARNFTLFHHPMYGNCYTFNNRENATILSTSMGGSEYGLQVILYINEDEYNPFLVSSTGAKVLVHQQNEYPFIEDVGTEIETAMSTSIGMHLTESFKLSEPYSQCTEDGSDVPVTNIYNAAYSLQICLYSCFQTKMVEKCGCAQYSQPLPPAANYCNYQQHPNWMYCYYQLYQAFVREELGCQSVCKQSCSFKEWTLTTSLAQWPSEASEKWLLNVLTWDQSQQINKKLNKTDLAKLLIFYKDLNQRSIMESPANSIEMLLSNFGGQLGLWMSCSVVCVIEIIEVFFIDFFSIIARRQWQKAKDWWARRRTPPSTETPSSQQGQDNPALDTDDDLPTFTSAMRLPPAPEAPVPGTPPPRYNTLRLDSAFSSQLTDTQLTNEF
# Assay: Ussing chamber: inhibition of amiloride sensitive short circuit current (I_sc) in M-1 cells
# Type: cell-based
# Settings: Mouse kidney M-1 cells on transwell filters, Ussing chamber at 37° C., compound added to the apical solution
# Description: Mouse kidney M-1 cells were cultivated in DMEM containing 5% FCS and 5 μM dexamethasone for 10 to 12 days on polyester transwell filters. Filters were inserted into a teflon-coated well-plate which fit into the in-house ussing chamber system. Prior to measurement the medium of M-1 cells was replaced with Caco-2 transport buffer (Invitrogen, Germany). During measurements, the Ussing chamber temperature was kept at 37° C. Short circuit currents (I_sc) were measured in the voltage-clamp mode using an in-house built amplifier (Boehringer Ingelheim, Biberach) with the software package Lab View for data acquisition and analysis. The transepithelial electrical resistance (TEER) was determined by the application of voltage steps of ±5 mV every 5 sec. Compounds were administered at a final concentration of 3 μM or at increasing concentrations (1-3-10 μM) to the apical solution. At the end of each experiment the amiloride sensitive I_SC was measured by adding 3 μM amiloride to the apical compartment. Results are expressed as inhibition in percent of the amiloride effect or as IC50. Results are listed in tables 1 to 5 and further examples listed above.
row,Structure (SMILES),IC50
1,CC(C)(C)OC(=O)NCCCN1CCC(CCc2ccccc2)(CNC(N)=NC(=O)c2nc(Cl)c(N)nc2N)CC1 [Example 1.28],36 nM
2,CC(C)(C)OC(=O)NCCCNC(=O)N1CCC(CCc2ccccc2)(CNC(N)=NC(=O)c2nc(Cl)c(N)nc2N)CC1 [Example 1.34],10 nM
3,COC(=O)CCNC(=O)N1CCC(CCc2ccccc2)(CNC(N)=NC(=O)c2nc(Cl)c(N)nc2N)CC1 [Example 1.19],24 nM
4,CC(C)(C)OC(=O)NCCC(=O)N1CCC(CCc2ccccc2)(CNC(N)=NC(=O)c2nc(Cl)c(N)nc2N)CC1 [Example 1.22],37 nM
5,COC(=O)CN1CCC(CNC(N)=NC(=O)c2nc(Cl)c(N)nc2N)(Cc2ccccc2)CC1 [Example 1.30],70 nM
6,CN(C)CCCN1CCC(CNC(N)=NC(=O)c2nc(Cl)c(N)nc2N)(Cc2ccccc2)CC1 [Example 1.31],287 nM
7,CN(C)CCN1CCC(CNC(N)=NC(=O)c2nc(Cl)c(N)nc2N)(Cc2ccccc2)CC1 [Example 1.41],91 nM
8,COc1ccccc1C1(CNC(N)=NC(=O)c2nc(Cl)c(N)nc2N)CCN(C(=O)OC(C)(C)C)CC1 [Example 1.45],66 nM
9,CC(C)(C)OC(=O)NCCCN1CCC(CNC(N)=NC(=O)c2nc(Cl)c(N)nc2N)(Cc2ccccc2)CC1 [Example 1.37],64 nM
10,CC(C)(C)OC(=O)NCCCNC(=O)N1CCC(CNC(N)=NC(=O)c2nc(Cl)c(N)nc2N)(Cc2ccccc2)CC1 [Example 1.36],18 nM
11,CN(C)CCNC(=O)N1CCC(CCc2ccccc2)(CNC(N)=NC(=O)c2nc(Cl)c(N)nc2N)CC1 [Example 1.10],36 nM
12,CCCC(=O)N1CCC(CCc2ccccc2)(CNC(N)=NC(=O)c2nc(Cl)c(N)nc2N)CC1 [Example 1.13],13 nM
13,CN1CCC(CCc2ccccc2)(CNC(N)=NC(=O)c2nc(Cl)c(N)nc2N)CC1 [Example 1.3],33 nM
14,CC(C)N1CCC(CCc2ccccc2)(CNC(N)=NC(=O)c2nc(Cl)c(N)nc2N)CC1 [Example 1.7],63 nM
15,CC(C)NC(=O)N1CCC(CNC(N)=NC(=O)c2nc(Cl)c(N)nc2N)(Cc2ccccc2)CC1 [Example 1.8],17 nM
16,CC(C)NC(=O)N1CCC(CNC(N)=NC(=O)c2nc(Cl)c(N)nc2N)(c2ccccc2)CC1 [Example 1.43],41 nM
17,CC(C)(C)OC(=O)NCC(=O)N1CCC(CNC(N)=NC(=O)c2nc(Cl)c(N)nc2N)(Cc2ccccc2)CC1 [Example 1.24],27 nM
18,CC(C)NC(=O)N1CCC(CNC(N)=NC(=O)c2nc(Cl)c(N)nc2N)(c2ccc3c(c2)OCO3)CC1 [Example 1.44],46 nM
19,COC(=O)CCC(=O)N1CCC(CNC(N)=NC(=O)c2nc(Cl)c(N)nc2N)(c2ccccc2)CC1 [Example 1.47],29 nM
20,CN(C)CC(=O)N1CCC(CCc2ccccc2)(CNC(=N)NC(=O)c2nc(Cl)c(N)nc2N)CC1 [Example 1.48],130 nM
21,CC(C)(C)OC(=O)NCCNC(=O)N1CCC(CCc2ccccc2)(CNC(N)=NC(=O)c2nc(Cl)c(N)nc2N)CC1 [Example 1.33],7 nM
22,COC(=O)CCC(=O)N1CCC(CNC(N)=NC(=O)c2nc(Cl)c(N)nc2N)(Cc2ccccc2)CC1 [Example 1.20],75 nM
23,C[N+]1(C)CCC(CCc2ccccc2)(CNC(N)=NC(=O)c2nc(Cl)c(N)nc2N)CC1 [Example 1.15],91 nM
24,CN(C)CCN1CCC(CCc2ccccc2)(CNC(N)=NC(=O)c2nc(Cl)c(N)nc2N)CC1 [Example 1.32],46 nM
25,CCNC(=O)N1CCC(CCc2ccccc2)(CN/C(N)=N/C(=O)c2nc(Cl)c(N)nc2N)CC1 [Example 1.12],12 nM

# Further lines, results first:
row,IC50,Structure (SMILES)
1,65 nM,NCCCN1CCC(CCc2ccccc2)(CNC(N)=NC(=O)c2nc(Cl)c(N)nc2N)CC1 [Example 2.5]
2,25 nM,NCCCNC(=O)N1CCC(CNC(N)=NC(=O)c2nc(Cl)c(N)nc2N)(Cc2ccccc2)CC1 [Example 2.13]
3,22 nM,C[N+](C)(C)CC(=O)N1CCC(CCc2ccccc2)(CNC(N)=NC(=O)c2nc(Cl)c(N)nc2N)CC1 [Example 1.49]
4,52 nM,C[N+]1(C)CCC(NC(=O)N2CCC(CCc3ccccc3)(CNC(N)=NC(=O)c3nc(Cl)c(N)nc3N)CC2)CC1 [Example 5.5]
5,28 nM,NCCCNC(=O)N1CCC(CCc2ccccc2)(CNC(N)=NC(=O)c2nc(Cl)c(N)nc2N)CC1 [Example 2.6]
6,61 nM,NCCCCC(=O)N1CCC(CNC(N)=NC(=O)c2nc(Cl)c(N)nc2N)(Cc2ccccc2)CC1 [Example 2.8]
7,19 nM,NCCC(=O)N1CCC(CCc2ccccc2)(CNC(N)=NC(=O)c2nc(Cl)c(N)nc2N)CC1 [Example 2.2]
8,14 nM,CN1CCN(C(=O)N2CCC(CCc3ccccc3)(CN/C(N)=N/C(=O)c3nc(Cl)c(N)nc3N)CC2)CC1 [Example 1.53]
9,40 nM,NC(=NC(=O)c1nc(Cl)c(N)nc1N)NCC1(CCc2ccccc2)CCN(C(=O)CCC(=O)O)CC1 [Example 3.1]
10,394 nM,COC(=O)c1ccc(CCC2(CNC(N)=NC(=O)c3nc(Cl)c(N)nc3N)CCNCC2)cc1 [Example 2.1]
11,55 nM,NC(=NC(=O)c1nc(Cl)c(N)nc1N)NCC1(Cc2ccccc2)CCNCC1 [Example 2.11]
12,17 nM,NCCNC(=O)N1CCC(CNC(N)=NC(=O)c2nc(Cl)c(N)nc2N)(Cc2ccccc2)CC1 [Example 2.12]
13,502 nM,"N/C(=N\C(=O)c1nc(Br)c(N)nc1N)NCC1(CCc2ccccc2)CCN(C(=O)CCC(=O)O)CC1 [Example 11, 4-{4-[N′-(3,5-Diamino-6-bromo-pyrazine-2-carbonyl)-guanidinomethyl]-4-phenethyl-piperidin-1-yl}-4-oxo-butyric acid]"
14,18 nM,N=C(N)NCCCCC(=O)N1CCC(CCc2ccccc2)(CNC(N)=NC(=O)c2nc(Cl)c(N)nc2N)CC1 [Example 4.2]
15,97 nM,N/C(=N\C(=O)c1nc(Cl)c(N)nc1N)NCC1(CCc2ccccc2)CCN(C(=O)NCCCCCCNC(=O)N2CCC(CCc3ccccc3)(CN/C(N)=N/C(=O)c3nc(Cl)c(N)nc3N)CC2)CC1 [Example 6.1]
16,16 nM,NCCNC(=O)N1CCC(CCc2ccccc2)(CNC(N)=NC(=O)c2nc(Cl)c(N)nc2N)CC1 [Example 2.7]
17,12 nM,N=C(N)NCCC(=O)N1CCC(CCc2ccccc2)(CNC(N)=NC(=O)c2nc(Cl)c(N)nc2N)CC1 [Example 4.1]

# — patent publication US9920035B2, “Heterocyclic compounds, medicaments containing said compounds, use thereof and processes for the preparation thereof” (Boehringer Ingelheim International GmbH, priority 2011, dated 2018)
